Assay results as given in patent publication EP4509497A1, “METHOD FOR PRODUCING ACETYLSALICYLIC ACID NICOTINAMIDE COCRYSTALS AND ACETYLSALICYLIC ACID NICOTINAMIDE COCRYSTALS WITH IMPROVED SOLUBILITY” (Ruhr-Universität Bochum, priority 2023, dated 2025).
In brackets after ≈: the same amount, converted by molar mass.

Assay: Solubility determination (gravimetric, saturated aqueous samples)
Assay type: physicochemical
Procedure: Es wurden 15 mL gesättigter wässriger Proben mit Niederschlag in 20 mL-Fläschchen mit dem Acetylsalicylsäure-Nicotinsäureamid-Co-Kristall (1:1), ASS und NIC angesetzt. Die Proben wurden bei Raumtemperatur mit einem Magnetrührer homogenisiert. Nach 1 h und 2 h werden von jeder Probe 4-mal ca. 1 mL Lösung entnommen (4-fach Bestimmung) und durch ein Vorspritzfilter in ein leeres 4 mL Fläschchen überführt. Die Fläschchen werden dann bis zur Verdampfung des Lösemittels offen stehengelassen. Die Fläschchen wurden leer, mit der gesättigten Lösung und nach dem Verdampfen gewogen. Die Löslichkeit in Masseprozent ergibt sich über die Differenz aus Gewicht nach dem Verdampfen und dem Leegewicht.

CC(=O)Oc1ccccc1C(=O)O [Acetylsalicylsäure, 2-Acetoxybenzoesäure, reference compound]
solubility thermodynamic at 1 h (water): 4140 µg/mL (≈ 23 mM) | solubility thermodynamic at 2 h (water): 4260 µg/mL (≈ 23.6 mM)

Acetylsalicylsäure-Nicotinsäureamid-Co-Kristall
ASS-Löslichkeit gesteigert um einen Faktor (ASS in co-crystal (ASS:NA 1:1) versus pure ASS, Fig. 7, after 1 h): ca. 2,5 | Löslichkeit Nach 1 h (water, 1 h): 1,768 ω % | Löslichkeit Nach 1 h (ASS im Co-Kristall) (water, 1 h): 1,054 ω % | Löslichkeit Nach 2 h (water, 2 h): 1,777 ω % | Löslichkeit Nach 2 h (ASS im Co-Kristall) (water, 2 h): 1,059 ω %
